Strand notation (5' to 3'): a small letter for the sugar, then the base; units joined by * are phosphorothioate-linked, units joined directly phosphodiester-linked; [ ] holds rarer units or linkages, { } end groups; capitals alone tell only the bases. e = 2'-O-(2-methoxyethyl) (MOE); [5mC] = 5-methylcytosine; d = 2'-deoxy (DNA)
Legend:
Assay type in all cases: in vivo
[1] = Body and organ weights of cynomolgus monkeys (Example 46); parameters: Liver weight / Spleen weight / Kidney weight: unit not given here; settings: for Kidney weight / Liver weight / Spleen weight: day 55, after euthanasia
Experimental: (§1) Groups, each consisting of two male and two female monkeys, were injected subcutaneously with 25 mg/kg of ISIS 416850, ISIS 449709, ISIS 445522, ISIS 449710, ISIS 449707, ISIS 449711, ISIS 449708, 416858, and ISIS 445531. Antisense oligonucleotide was administered to the monkeys at 25 mg/kg three times per week for week 1 and 25 mg/kg twice per week for weeks 2 to 8. A control group, consisting of two male and two female monkeys was injected subcutaneously with PBS according to the same dosing regimen. Body weights were taken 14 days and 7 days before the start of treatment and were then measured weekly throughout the treatment period. Blood samples were collected 14 days and 5 days before the start of treatment and subsequently several times during the dosing regimen for PT and aPTT measurements, and measurement of various hematologic factors. On day 55, the monkeys were euthanized by exsanguination while under deep anesthesia, and organs harvested for further analysis.
Organ weights were taken after the animals were euthanized on day 55, and livers, kidneys and spleens were harvested.

[2] = Liver function, ALT, AST, bilirubin in cynomolgus monkeys (Example 46); settings: plasma
Experimental: as §1
Plasma concentrations of alanine transaminase (ALT) and aspartate transaminase (AST) were measured and the results are presented in Tables 152 and 153 expressed in IU/L. Plasma levels of bilirubin were also measured and results are presented in Table 154 expressed in mg/dL. As observed in Tables 152-154, there were no significant increases in any of the liver metabolic markers after antisense oligonucleotide treatment.

[3] = Kidney function, BUN, urine protein to creatinine ratio in cynomolgus monkeys (Example 46); settings: for Urine protein/creatinine ratio: day 49
Experimental: as §1
To evaluate the impact of ISIS oligonucleotides on kidney function, urine samples were collected on different days. […] The ratio of urine protein to creatinine in urine samples after antisense oligonucleotide treatment was also calculated for day 49 and results are presented in Table 156. As observed in Tables 155 and 156, there were no significant increases in any of the kidney metabolic markers after antisense oligonucleotide treatment.

[4] = tested on: blood coagulation; experiment: PT and aPTT assay in cynomolgus monkeys (Example 46); settings: platelet poor plasma, relative to PBS group
Experimental: as §1
PT and aPTT were measured using platelet poor plasma (PPP) from […] treated with ISIS oligonucleotides. PT and aPTT values are provided in Tables 148 and 149 and are reported as International Normalized Ratio (INR) values. INR values for PT and aPTT were determined by dividing the PT or aPTT value for each experimental group by the PT or aPTT for the PBS treated group. This ratio was then raised to the power of the International Sensitivity Index (ISI) of the tissue factor used. […] Therefore, antisense reduction of Factor 11 with these ISIS oligonucleotides is useful for inhibiting the formation of a thrombus or clot in response to an abnormal vessel wall, but not in response to tissue injury.

[5] = Day −5 (before start of treatment)
[6] = Day −14 (before start of treatment)

With “ISIS 449708: 3-8-3, 4-8-4, 2-10-2, 3-10-3 or 4-10-4 MOE microwalk gapmer (Table 46) (antisense eA*e[5mC]*eA*dG*dT*dT*dT*d[5mC]*dT*dG*dG*e[5mC]*eA*eG)” the body weight ([1]; day 1) was 2130 g, the body weight ([1]; day 8) was 2148 g and the body weight ([1]; day 15) was 2125 g. It also gave a body weight ([1]; day 22) of 2110 g, a body weight ([1]; day 29) of 2095 g and a body weight ([1]; day 36) of 2100 g. The body weight ([1]; day 43) was 2125 g, the body weight ([1]; day 50) was 2076 g and the Kidney weight [1] was 0.60. It also gave a Liver weight [1] of 2.6, a Spleen weight [1] of 0.19 and a body weight ([1]; day −7) of 2163 g. It also gave a body weight ([1]; day −14) of 2096 g, an ALT ([2]; Day 31) of 44 IU/L and an AST ([2]; Day 31) of 56 IU/L. It also gave a Bilirubin ([2]; Day 31) of 0.14 mg/dL, an ALT ([2]; Day 55) of 46 IU/L and an AST ([2]; Day 55) of 50 IU/L. For the same substance, the Bilirubin ([2]; Day 55) was 0.14 mg/dL, the ALT ([2]; Day −5) was 54 IU/L and the AST ([2]; Day −5) was 53 IU/L. The Bilirubin ([2]; Day −5) was 0.21 mg/dL, the ALT ([2]; Day −14) was 48 IU/L and the AST ([2]; Day −14) was 74 IU/L. It also gave a Bilirubin ([2]; Day −14) of 0.27 mg/dL, a BUN levels ([3]; Day 31) of 23 mg/dL and a BUN levels ([3]; Day 55) of 23 mg/dL. For the same substance, the BUN levels [3, 5] was 23 mg/dL, the BUN levels [3, 6] was 25 mg/dL and the Urine protein/creatinine ratio [3] was 0.00. The “PT ratio (INR)” value ([4]; Day 10) was 0.98, the “aPTT ratio relative to PBS group” value ([4]; Day 10) was 1.06 and the “PT ratio (INR)” value ([4]; Day 17) was 1.00. For the same substance, the “aPTT ratio relative to PBS group” value ([4]; Day 17) was 1.05, the “PT ratio (INR)” value ([4]; Day 24) was 0.95 and the “aPTT ratio relative to PBS group” value ([4]; Day 24) was 1.01. The “PT ratio (INR)” value ([4]; Day 31) was 1.06, the “aPTT ratio relative to PBS group” value ([4]; Day 31) was 1.09 and the “PT ratio (INR)” value ([4]; Day 38) was 0.99. The “aPTT ratio relative to PBS group” value ([4]; Day 38) was 1.06, the “PT ratio (INR)” value ([4]; Day 45) was 0.99 and the “aPTT ratio relative to PBS group” value ([4]; Day 45) was 1.06. The “PT ratio (INR)” value ([4]; Day 52) was 0.99, the “aPTT ratio relative to PBS group” value ([4]; Day 52) was 1.08 and the “PT ratio (INR)” value ([4]; Day 55) was 1.04. The “aPTT ratio relative to PBS group” value ([4]; Day 55) was 1.11, the “PT ratio (INR)” value ([4]; Day −5) was 0.95 and the “aPTT ratio relative to PBS group” value ([4]; Day −5) was 1.01. The “PT ratio (INR)” value ([4]; Day −14) was 1.03 and the “aPTT ratio relative to PBS group” value ([4]; Day −14) was 1.07.
With “ISIS 449710: 3-8-3, 4-8-4, 2-10-2, 3-10-3 or 4-10-4 MOE microwalk gapmer (Table 46) (antisense e[5mC]*eA*e[5mC]*dA*dG*dT*dT*dT*d[5mC]*dT*dG*dG*d[5mC]*eA*eG*eG)” the body weight ([1]; day 1) was 2131 g, the body weight ([1]; day 8) was 2120 g and the body weight ([1]; day 15) was 2145 g. The body weight ([1]; day 22) was 2177 g, the body weight ([1]; day 29) was 2149 g and the body weight ([1]; day 36) was 2180 g. For the same substance, the body weight ([1]; day 43) was 2227 g, the body weight ([1]; day 50) was 2201 g and the Kidney weight [1] was 0.58. The Liver weight [1] was 2.6, the Spleen weight [1] was 0.24 and the body weight ([1]; day −7) was 2114 g. It also gave a body weight ([1]; day −14) of 2097 g, an ALT ([2]; Day 31) of 37 IU/L and an AST ([2]; Day 31) of 37 IU/L. The Bilirubin ([2]; Day 31) was 0.15 mg/dL, the ALT ([2]; Day 55) was 45 IU/L and the AST ([2]; Day 55) was 64 IU/L. For the same substance, the Bilirubin ([2]; Day 55) was 0.22 mg/dL, the ALT ([2]; Day −5) was 42 IU/L and the AST ([2]; Day −5) was 38 IU/L. It also gave a Bilirubin ([2]; Day −5) of 0.19 mg/dL, an ALT ([2]; Day −14) of 37 IU/L and an AST ([2]; Day −14) of 52 IU/L. It also gave a Bilirubin ([2]; Day −14) of 0.24 mg/dL, a BUN levels ([3]; Day 31) of 19 mg/dL and a BUN levels ([3]; Day 55) of 23 mg/dL. The BUN levels [3, 5] was 19 mg/dL, the BUN levels [3, 6] was 19 mg/dL and the Urine protein/creatinine ratio [3] was 0.00. The “PT ratio (INR)” value ([4]; Day 10) was 0.98, the “aPTT ratio relative to PBS group” value ([4]; Day 10) was 1.00 and the “PT ratio (INR)” value ([4]; Day 17) was 1.00. For the same substance, the “aPTT ratio relative to PBS group” value ([4]; Day 17) was 0.97, the “PT ratio (INR)” value ([4]; Day 24) was 0.97 and the “aPTT ratio relative to PBS group” value ([4]; Day 24) was 1.00. The “PT ratio (INR)” value ([4]; Day 31) was 0.98, the “aPTT ratio relative to PBS group” value ([4]; Day 31) was 1.04 and the “PT ratio (INR)” value ([4]; Day 38) was 0.99. For the same substance, the “aPTT ratio relative to PBS group” value ([4]; Day 38) was 1.02, the “PT ratio (INR)” value ([4]; Day 45) was 0.97 and the “aPTT ratio relative to PBS group” value ([4]; Day 45) was 1.06. For the same substance, the “PT ratio (INR)” value ([4]; Day 52) was 0.98, the “aPTT ratio relative to PBS group” value ([4]; Day 52) was 1.03 and the “PT ratio (INR)” value ([4]; Day 55) was 1.06. The “aPTT ratio relative to PBS group” value ([4]; Day 55) was 1.07, the “PT ratio (INR)” value ([4]; Day −5) was 0.96 and the “aPTT ratio relative to PBS group” value ([4]; Day −5) was 0.98. For the same substance, the “PT ratio (INR)” value ([4]; Day −14) was 1.03 and the “aPTT ratio relative to PBS group” value ([4]; Day −14) was 1.07.

Source: patent publication US20230263822A1, “MODULATION OF FACTOR 11 EXPRESSION” (Ionis Pharmaceuticals, Inc., priority 2008, published 2023)
